Activity calls are given as the source filed them. The rule behind the calls is not given here.
Experiments:
RAW264.7 [1] = assay: Increase in TNF-alpha production in mouse RAW264.7 cells at 50 uM incubated for 24 hrs by ELISA (reference value: 1133.56 +/- 46.61 pg/ml); format: functional
RAW264.7 [2] = assay: Increase in TNF-alpha production in mouse RAW264.7 cells incubated for 24 hrs by ELISA; format: functional, cell-based; conditions: RAW264.7, 24 h
[3] = Increase in TNF-alpha production in mouse BMDM cells incubated for 24 hrs by ELISA; format: functional, cell-based
Mus musculus [4] = assay: In vivo induction of M1-phenotype associated marker in C57BL/6 mouse xenografted with mouse LLC cells assessed as increase in F4/80-iNOS expression at 5 mg/kg, ip administered every other day for 30 days by DAPI staining based immunofluorescence microscopic analysis; format: functional, organism-based
RAW264.7 [5] = assay: Induction of M1-phenotype associated markers in mouse RAW264.7 cells assessed as F4/80-MHC II expression incubated for 24 hrs by flow cytometry (reference value: 12.1 %); format: functional
[6] = Toxicity in C57BL/6 mouse xenografted with mouse LLC cells assessed as effect on body weight in prescence of anti-PD1 (1 mg/kg) at 5 mg/kg, ip administered every other day for 30 days; format: organism-based; conditions: in vivo, 720 h
RAW264.7 [7] = assay: Cytotoxicity against mouse RAW264.7 cells assessed as reduction in cell viability at 1000 uM incubated for 24 hrs by CCK-8 assay; format: cell-based; conditions: raw264.7, 24 h
[8] = test system: Lewis lung carcinoma cell line; assay: Antitumor activity against mouse LLC cells xenografted in C57BL/6 mouse assessed as reduction in tumor volume in prescence of anti-PD1 at 5 mg/kg, ip administered every other day for 30 days; format: functional, organism-based
RAW264.7 [9] = assay: Induction of M1-phenotype markers expression in mouse RAW264.7 cells assessed as increase in IL-1beta expression incubated for 1 hr by qRT-PCR; format: functional, cell-based
[10] = test system: Lewis lung carcinoma cell line; assay: Antitumor activity against mouse LLC cells xenografted in C57BL/6 mouse assessed as reduction in tumor volume at 5 mg/kg, ip administered every other day for 30 days; format: functional, organism-based
RAW264.7 [11] = assay: Induction of M1-phenotype markers expression in mouse RAW264.7 cells assessed as increase in IL-12alpha expression incubated for 1 hr by qRT-PCR; format: functional, cell-based
RAW264.7 [12] = assay: Inhibition of M2-phenotype markers expression in mouse RAW264.7 cells assessed as decrease in IL-4 -induced CD206 expression incubated for 1 hr by qRT-PCR; format: functional, cell-based
RAW264.7 [13] = assay: Induction of M1-phenotype markers expression in mouse RAW264.7 cells assessed as increase in iNOS expression incubated for 1 hr by qRT-PCR; format: functional, cell-based
[14] = Toxicity in C57BL/6 mouse xenografted with mouse LLC cells assessed as effect on body weight at 5 mg/kg, ip administered every other day for 30 days; format: organism-based; conditions: in vivo, 720 h
RAW264.7 [15] = assay: Inhibition of M2-phenotype associated markers in mouse RAW264.7 cells assessed as F4/80-CD206 expression in presence of IL4 incubated for 24 hrs by flow cytometry (reference value: 7.54 %); format: functional
Mus musculus [16] = assay: In vivo inhibition of M2-phenotype associated marker in C57BL/6 mouse xenografted with mouse LLC cells assessed as decrease in F4/80-CD206 expression in presence of anti-PD1 at 5 mg/kg, ip administered every other day for 30 days by DAPI staining based immunofluorescence microscopic analysis; format: functional, organism-based
RAW264.7 [17] = assay: Inhibition of M2-phenotype markers expression in mouse RAW264.7 cells assessed as decrease in IL-4 -induced in Fizz-1 expression incubated for 1 hr by qRT-PCR; format: functional, cell-based
[18] = Toxicity in C57BL/6 mouse xenografted with mouse LLC cells assessed as effect on liver at 5 mg/kg, ip administered every other day for 30 days by H and E staining based microscopic analysis; format: organism-based; conditions: in vivo, 720 h
RAW264.7 [19] = assay: Inhibition of M2-phenotype markers expression in mouse RAW264.7 cells assessed as decrease in IL-4 -induced in Arg-1 expression incubated for 1 hr by qRT-PCR; format: functional, cell-based
RAW264.7 [20] = assay: Inhibition of M2-phenotype markers expression in mouse RAW264.7 cells assessed as decrease in IL-4 -induced in Ym-1R expression incubated for 1 hr by qRT-PCR; format: functional, cell-based
RAW264.7 [21] = assay: Induction of M1-phenotype markers expression in mouse RAW264.7 cells assessed as increase in TNFalpha expression incubated for 1 hr by qRT-PCR; format: functional, cell-based
Mus musculus [22] = assay: In vivo inhibition of M2-phenotype associated marker in C57BL/6 mouse xenografted with mouse LLC cells assessed as decrease in F4/80-CD206 expression at 5 mg/kg, ip administered every other day for 30 days by DAPI staining based immunofluorescence microscopic analysis; format: functional, organism-based
[23] = test system: Lewis lung carcinoma cell line; assay: Antitumor activity against mouse LLC cells xenografted in C57BL/6 mouse assessed as reduction in tumor weight at 5 mg/kg, ip administered every other day for 30 days; format: functional, organism-based
[24] = Toxicity in C57BL/6 mouse xenografted with mouse LLC cells assessed as effect on lungs at 5 mg/kg, ip administered every other day for 30 days by H and E staining based microscopic analysis; format: organism-based; conditions: in vivo, 720 h
Mus musculus [25] = assay: In vivo induction of M1-phenotype associated marker in C57BL/6 mouse xenografted with mouse LLC cells assessed as increase in F4/80-iNOS expression in presence of anti-PD1 at 5 mg/kg, ip administered every other day for 30 days by DAPI staining based immunofluorescence microscopic analysis; format: functional, organism-based
[26] = test system: Lewis lung carcinoma cell line; assay: Antitumor activity against mouse LLC cells xenografted in C57BL/6 mouse assessed as reduction in tumor weight in prescence of anti-PD1 at 5 mg/kg, ip administered every other day for 30 days; format: functional, organism-based

## CN1CCN(C(=O)c2cccc3c4c([nH]c23)CCC(NC(=O)Nc2ccc(Cl)c(C(F)(F)F)c2)C4)CC1 (configuration not stated)
RAW264.7 [1]
  Activity: 2506.98 pg/mL

## O=C(Nc1ccc(Cl)c(C(F)(F)F)c1)NC1CCc2[nH]c3ccc(C(=O)N4CCOCC4)cc3c2C1 (configuration not stated)
RAW264.7 [1]
  Activity: 5510.03 pg/mL

## O=C(Nc1ccc(Cl)c(C(F)(F)F)c1)NC1CCc2[nH]c3cc(-c4cnn(CCO)c4)ccc3c2C1 (configuration not stated)
RAW264.7 [1]
  Activity: 6043.84 pg/mL

## O=C(Nc1ccc(Cl)c(C(F)(F)F)c1)NC1CCc2[nH]c3cccc(C(=O)NCCOCCO)c3c2C1 (configuration not stated)
RAW264.7 [1]
  Activity: 500.62 pg/mL

## O=C(Nc1ccc(Cl)c(C(F)(F)F)c1)NC1CCc2[nH]c3ccc(C(=O)NC4CC4)cc3c2C1 (configuration not stated)
RAW264.7 [1]
  Activity: 4458.11 pg/mL

## O=C(Nc1ccc(Cl)c(C(F)(F)F)c1)NC1CCc2[nH]c3c(C(=O)NC4CC4)cccc3c2C1 (configuration not stated)
RAW264.7 [2]
  EC50: 18.4 µM
[3]
  EC50: 63.5 µM
RAW264.7 [1]
  Activity: 7730.01 pg/mL

## Cn1cc(-c2ccc3c4c([nH]c3c2)CCC(NC(=O)Nc2ccc(Cl)c(C(F)(F)F)c2)C4)cn1 (configuration not stated)
RAW264.7 [1]
  Activity: 3770.66 pg/mL

## Cn1cc(-c2cccc3[nH]c4c(c23)CC(NC(=O)Nc2ccc(Cl)c(C(F)(F)F)c2)CC4)cn1 (configuration not stated)
RAW264.7 [2]
  EC50: 17.2 µM
Mus musculus [4]
  Activity: Active
RAW264.7 [5]
  Activity: 24.4%
[6]
  Activity: Non-Toxic
RAW264.7 [7]
  Activity: Non-Toxic
[8]
  Activity: Active
RAW264.7 [9]
  Activity: Dose-dependent effect
[10]
  Activity: Active
RAW264.7 [11]
  Activity: Dose-dependent effect
RAW264.7 [12]
  inhibition: Dose-dependent effect
RAW264.7 [13]
  Activity: Dose-dependent effect
[14]
  Activity: Non-Toxic
RAW264.7 [15]
  inhibition (INH): 8.76%
Mus musculus [16]
  Activity: Active
RAW264.7 [17]
  inhibition: Dose-dependent effect
[18]
  Activity: Non-Toxic
RAW264.7 [19]
  inhibition: Dose-dependent effect
[3]
  EC50: 18.9 µM
RAW264.7 [20]
  inhibition: Dose-dependent effect
RAW264.7 [21]
  Activity: Dose-dependent effect
Mus musculus [22]
  Activity: Active
RAW264.7 [1]
  Activity: 5994.12 pg/mL
[23]
  Activity: Active
[24]
  Activity: Non-Toxic
Mus musculus [25]
  Activity: Active
[26]
  Activity: Active

## O=C(Nc1ccc(Cl)c(C(F)(F)F)c1)NC1CCc2[nH]c3cc(C(=O)NCCOCCO)ccc3c2C1 (configuration not stated)
RAW264.7 [1]
  Activity: 6968.79 pg/mL

## O=C(Nc1ccc(Cl)c(C(F)(F)F)c1)NC1CCc2[nH]c3cccc(C(=O)NC4CC4)c3c2C1 (configuration not stated)
RAW264.7 [1]
  Activity: 6427.32 pg/mL

## O=C(Nc1ccc(Cl)c(C(F)(F)F)c1)NC1CCc2[nH]c3c(C(=O)NCCOCCO)cccc3c2C1 (configuration not stated)
RAW264.7 [1]
  Activity: 3364.65 pg/mL

## O=C(Nc1ccc(Cl)c(C(F)(F)F)c1)NC1CCc2[nH]c3cc(C(=O)NCCO)ccc3c2C1 (configuration not stated)
RAW264.7 [1]
  Activity: 4377.67 pg/mL

## O=C(Nc1ccc(Cl)c(C(F)(F)F)c1)NC1CCc2[nH]c3cc(C(=O)NCCCO)ccc3c2C1 (configuration not stated)
RAW264.7 [1]
  Activity: 5030.39 pg/mL

## O=C(Nc1ccc(Cl)c(C(F)(F)F)c1)NC1CCc2[nH]c3cc(C(=O)NC4CC4)ccc3c2C1 (configuration not stated)
RAW264.7 [1]
  Activity: 6034.58 pg/mL

## O=C(Nc1ccc(Cl)c(C(F)(F)F)c1)NC1CCc2[nH]c3cccc(-c4cnn(CCO)c4)c3c2C1 (configuration not stated)
RAW264.7 [2]
  EC50: 13.4 µM
[3]
  EC50: 20.9 µM
RAW264.7 [1]
  Activity: 6714.86 pg/mL

## CN1CCN(C(=O)c2cccc3[nH]c4c(c23)CC(NC(=O)Nc2ccc(Cl)c(C(F)(F)F)c2)CC4)CC1 (configuration not stated)
RAW264.7 [1]
  Activity: 3714.66 pg/mL

## O=C(Nc1ccc(Cl)c(C(F)(F)F)c1)NC1CCc2[nH]c3c(C(=O)N4CCOCC4)cccc3c2C1 (configuration not stated)
RAW264.7 [1]
  Activity: 4127.15 pg/mL

## CC(C)NC(=O)c1ccc2c3c([nH]c2c1)CCC(NC(=O)Nc1ccc(Cl)c(C(F)(F)F)c1)C3 (configuration not stated)
RAW264.7 [1]
  Activity: 5566.34 pg/mL

## O=C(Nc1ccc(Cl)c(C(F)(F)F)c1)NC1CCc2[nH]c3cc(C(=O)N4CCOCC4)ccc3c2C1 (configuration not stated)
RAW264.7 [1]
  Activity: 6085.83 pg/mL

## CN1CCN(C(=O)c2ccc3[nH]c4c(c3c2)CC(NC(=O)Nc2ccc(Cl)c(C(F)(F)F)c2)CC4)CC1 (configuration not stated)
RAW264.7 [1]
  Activity: 4935.9 pg/mL

## CN1CCN(C(=O)c2ccc3c4c([nH]c3c2)CCC(NC(=O)Nc2ccc(Cl)c(C(F)(F)F)c2)C4)CC1 (configuration not stated)
RAW264.7 [1]
  Activity: 6552.76 pg/mL

## O=C(Nc1ccc(Cl)c(C(F)(F)F)c1)NC1CCc2[nH]c3ccc(C(=O)NCCOCCO)cc3c2C1 (configuration not stated)
RAW264.7 [1]
  Activity: 561.78 pg/mL

## O=C(Nc1ccc(Cl)c(C(F)(F)F)c1)NC1CCc2[nH]c3cccc(C(=O)N4CCOCC4)c3c2C1 (configuration not stated)
RAW264.7 [1]
  Activity: 4025.54 pg/mL

Source: ChEMBL document CHEMBL4406860, “Discovery of potent ureido tetrahydrocarbazole derivatives for cancer treatments through targeting tumor-associated macrophages” (Eur J Med Chem, 2019)
